Measurements as given in patent publication US20040198821A1, “Reduction of hair growth” (priority 2002, published 2004).

Assays:
[1] = test system: hamster flank organ hair growth (hair mass); test: Golden Syrian hamster assay (hair mass assay); format: in vivo; conditions: for % Inhibition of hamster hair mass / Treated (mg) hair mass: three weeks
Excerpt: Golden Syrian Hamster Assay
Male intact Golden Syrian hamsters are considered acceptable models for human beard hair growth in that they display oval shaped flank organs, one on each side, each about 8 mm. in major diameter. These organs produce fine light colored hair typical of the animal pelage found on the body. In response to androgens the flank organs produce dark coarse hair similar to male human beard hair. To evaluate the effectiveness of a composition in reducing hair growth, the flank organs of each of a group of hamsters are depilated by applying a thioglycolate based chemical depilatory (Surgex) and/or shaved. To one organ of each animal 10 μl. of vehicle alone once a day is applied, while to the other organ of each animal an equal amount of vehicle containing the compound under evaluation is applied. After three weeks of topical applications (one application per day for five days a week), the flank organs are shaved and the amount of recovered hair (hair mass) from each is weighed. Percent-reduction of hair growth is calculated by subtracting the hair mass (mg) value of the test compound treated side from the hair mass value of the vehicle treated side; the delta value obtained is then divided by the hair mass value of the vehicle treated side, and the resultant number is multiplied by 100.
The above-described assay will be referred to herein as the “Golden Syrian hamster” assay or “hair mass” assay. Preferred compositions provide a reduction in hair growth of at least about 15% and more preferably at least about 35%, when tested in the Golden Syrian hamster assay.

[2] = test system: Carnitine palmitoyltransferase I (CPT I); test: Assay of carnitine palmitoyl transferase-I (CPT-I), Method-I; format: biochemical; conditions: inhibitor 5 mM, hamster flank organ hair follicle fraction
Description: Assay of Carnitine Palmitoyl Transferase-I (CPT-I)
Two different enzyme assays were used to quantify the activity of CPT-I in hair follicles:
Hair follicle rich fraction from hamster flank organs are homogenized in Buffer A (200 mM mannitol, 10 mM sucrose, 5 mM MOPS pH 7.4). The homogenate is centrifuged at 2000 rpm for 10 minutes. The supernatant is removed and centrifuged at 7000 rpm for 30 minutes. The pellet is resuspended in Buffer B (20 mM Tris-HCl, pH 7.4), 400 mM sucrose, 80 mM KCl, 2 mM EDTA, 2.6 mg/ml fatty acid free BSA). 30 μl of the resuspended pellet is added to 35 μl of DMSO or one of the inhibitors diluted in DMSO so that the final concentration is 5 mM. After a 15 min preincubation, the following are added; 35 μl of 1.7 mM palmitoyl Co-A (34% water and 66% Buffer B), 10 μl of 5 mM L-carnitine (in buffer B with 0.5 μCi ^3H-carnitine). The reaction is then placed in a 37° C. water bath for 30 minutes. At the end of 30 minutes the reaction is stopped by the addition of 150 μl cold 1N HCl. This is followed by the addition of 250μl water to each sample. Butanol (500 μl) is then added to each sample and the samples are centrifuged for 2 minutes at 10,000×g. 300 μl of the butanol layer is transferred to a new centrifuge tube and 250 μl of water is added. 200 μl of the organic phase is added to a scintillation vial containing 12 ml of scintillation cocktail. The radioactivity is determined using a scintillation counter.

[3] = test system: human hair follicles; test: Human hair follicle growth assay; format: cell-based
Excerpt: Human Hair Follicle Growth Assay
Tissue source—Human skin was obtained from a plastic surgeon as a by-product of face-lift procedures. Immediately after removal, the skin was placed in Williams E medium containing antibiotics and refrigerated. The Williams E medium is a commercially obtained medium which has been formulated with essential nutrients for maintaining viability of tissues or cells such as of hair follicle in an in-vitro environment.
Hair Follicle Isolation and Culture—Human hair follicles in growth phase (anagen) were isolated from face-lift tissue under a dissecting scope using a scalpel and watchmakers forceps. The skin was sliced into thin strips exposing 2-3 rows of follicles that could readily be dissected. Follicles were placed into 0.5 ml Williams E medium supplemented with 2 mM L-glutamine, 10 μg/ml insulin, 100 ng/ml hydrocortisone, 100 units penicillin, 0.1 mg/ml streptomycin and 0.25 μg/ml amphotericin B. The follicles were incubated in 24 well plates (1 follicle/well) at 37° C. in an atmosphere of 5% CO2 and 95% air. Hair follicles were video recorded in the 24-well plates under the dissecting scope under a power of 10×. Typically, hair follicle lengths were measured on day 0 (day follicles were placed in culture) and again on day 7. When testing compounds, the compound was included in the culture medium from time 0 and remained in the medium throughout the course of the experiment. The length of hair follicles was assessed using an image analysis software system (Jasc Image Robot).

[4] = test system: 3-ketoacyl-CoA thiolase; test: Assay of 3-ketoacyl-CoA thiolase; format: biochemical, hamster; conditions: inhibitor 0.5 mM, mitochondria preincubated 5 min
Description: Assay of 3-Ketoacyl-CoA Thiolase:
Aliquots of the mitochondrial suspension (50 μl) were rapidly frozen in dry ice and stored at −80° C. until enzyme activities were assayed as described below. To insure the complete disruption of mitochondria, Triton X-100 (0.06%) was added to all assay mixtures. The activity of thiolase was determined by spectrophotometrically following the disappearance of the Mg^2+-enolate complex at 303 nm. The enzyme assay was performed at 25° C. The reaction mixture contained 0.1 M Tris-HCl (pH 8.2), 25 mM MgCl2, 30 mM KCl, 0.06% Triton X-100, bovine serum albumin (0.13 mg/ml), 70 μM CoA and 33 μM acetoacetyl-CoA. Molar extinction coefficient of […] was used to calculate the rates determined with acetoacetyl-CoA.

[5] = test system: Carnitine palmitoyltransferase I (CPT I); test: Assay of carnitine palmitoyl transferase-I (CPT-I), Method II (isolated mitochondrial fraction); format: biochemical, hamster; conditions: inhibitor 1 mM
Description: The enzyme activity of carnitine palmitoyl transferase-I (CPT-I) was also determined in the isolated mitochondrial fraction. Isolation of mitochondria from the hair follicle rich fraction of flank organs was accomplished by conventional differential centriftigation in 0.25 M sucrose, 10 mM Tris-HCl, pH 7.4 and 1 mM EDTA after tissues were homogenized by polytron homogenizer and Dounce tissue grinder. The pellet obtained at 7000 g was washed two times and finally suspended at 40-80 mg/ml. Carnitine palmitoyltransferase was measured as the rate of conversion of palmitoyl-CoA and [^3H]CH3-L-carnitine into palmitoyl-[^3H]CH3-1-carnitine. The incubation mixture initially contained 12.5 μmol of Tris-HCl (pH 7.2), 15 μmol of KCl, 3.1 μmol of KCN, 6.2 μmol of glutathione, 15 nmol of CoA, […], 2 μmol of ATP (pH 6.8) in volume of 0.425 ml. To this mixture 50 μl of mitochondria were added, followed by preincubation at 37° C. for 10 minutes in the presence or absence of the enzyme inhibitor methyl palmoxirate (dissolved in DMSO). After preincubation, the enzyme reaction was initiated by the addition of 25 μl of 2 mM palmitoyl-CoA and 25 μl of 4 mM [^3H]CH3-L-carnitine. The reaction was stopped after 30 minutes with 1 ml 1N HCl and palmitoyl-[^3H]CH3-L-carnitine was extracted into n-butanol. The radioactivity was determined using scintillation spectrometry.

[6] = 1 mM in culture medium, day 0 to day 7

## CCCCCCCCCC(=O)OC(CC(=O)O)C[N+](C)(C)C.[Cl-] (racemic) [DL-decanoylcarnitine chloride]
[1]; topical dose 10.0%, vehicle B
  % Inhibition of hamster hair mass: 58 ± 5%
  Treated (mg) hair mass: 0.94 ± 0.12 mg

## CCCCCCCCCCCCCCC(Br)C(=O)O (centres unmarked) [2-bromopalmitic acid]
[2]
  % inhibition of CPT I: 91%
  pmol product /mg protein (CPT I activity): 0.07 pmol product /mg protein

## CCCC(CCC)C(=O)O [2-propylpentanoic acid]
[1]; topical dose 20.0%, vehicle A
  % Inhibition of hamster hair mass: 67 ± 3%
  Treated (mg) hair mass: 2.68 ± 0.20 mg

## O=C(O)/C=C/CBr [4-bromocrotonic acid]
[1]; topical dose 3.0%, vehicle B
  % Inhibition of hamster hair mass: 37 ± 14%
  Treated (mg) hair mass: 1.25 ± 0.37 mg
[3]; 0.03 mM in culture medium, day 0 to day 7
  Hair follicle length increase (mm): 0.06 ± 0.06 mm
[3]; Homo sapiens, 0.03 mM in culture medium, day 0 to day 7
  inhibition at 30 µM: 95 ± 5%
[4]
  % inhibition of 3-ketoacyl-CoA thiolase: 85.2%
  nmol product/mg protein (3-ketoacyl-CoA thiolase activity): 0.128 nmol product/mg protein

## C=CCCC(=O)O [4-pentenoic acid]
[1]; topical dose 10.0%, vehicle A
  % Inhibition of hamster hair mass: 46 ± 8%
  Treated (mg) hair mass: 1.10 ± 0.12 mg

## CC(C)(C)c1ccc(C(=O)O)cc1 [4-tert-butylbenzoic acid]
[1]; topical dose 10.0%, vehicle C
  % Inhibition of hamster hair mass: 46 ± 8%
  Treated (mg) hair mass: 1.10 ± 0.12 mg

## CCCCc1oc2ccccc2c1C(=O)c1cc(I)c(OCCN(CC)CC)c(I)c1 [amiodarone]
[1]; topical dose 7.5%, vehicle A
  % Inhibition of hamster hair mass: 44 ± 28%
  Treated (mg) hair mass: 1.62 ± 0.9 mg

## C/C=C/C/C=C/CCC(=O)[C@H]1O[C@H]1C(N)=O [cerulenin]
[3]; 10 μM in culture medium, day 0 to day 7
  Hair follicle length increase (mm): 0.06 ± 0.05 mm
[3]; Homo sapiens, 10 μM in culture medium, day 0 to day 7
  inhibition at 10 µM: 93.7 ± 5.6%
[3]; text summary of Table VII
  inhibition of human hair follicle growth in vitro (in words): can inhibit human hair follicle growth in vitro with marked efficacy

## COc1ccc(Cl)cc1C(=O)NCCc1ccc(S(=O)(=O)NC(=O)NC2CCCCC2)cc1 [glynbenclamide]
[1]; topical dose 10.0%, vehicle D
  % Inhibition of hamster hair mass: 32 ± 8%
  Treated (mg) hair mass: 1.40 ± 0.32 mg
[2]
  % inhibition of CPT I: 100%
  pmol product /mg protein (CPT I activity): 0.00 pmol product /mg protein

## CC(C)(COP(=O)(O)OP(=O)(O)OC[C@H]1O[C@@H](n2cnc3c(N)ncnc32)[C@H](O)[C@@H]1OP(=O)(O)O)[C@@H](O)C(=O)NCCC(=O)NCCSC(=O)CC(=O)O [malonyl CoA]
[2]
  % inhibition of CPT I: 22%
  pmol product /mg protein (CPT I activity): 0.59 pmol product /mg protein

## CCCCCCCCCCCCCCC1(C(=O)OC)CO1 (centres unmarked) [methyl palmoxirate, methyl-2-tetradecylglycidate]
[1]; topical dose 2.0%, vehicle B
  % Inhibition of hamster hair mass: 66 ± 4%
  Treated (mg) hair mass: 0.56 ± 0.12 mg
[3]; 0.1 mM in culture medium, day 0 to day 7
  Hair follicle length increase (mm): 0.54 ± 0.3 mm
[3]; Homo sapiens, 0.1 mM in culture medium, day 0 to day 7
  inhibition at 100 µM: 57 ± 24%

## CCCCCCCCC1=C(CCCCCCCC(=O)OC)C1 [methyl sterculate]
[1]; text summary of Table VIII
  reduction of hair growth in vivo (in words): can reduce hair growth both in vivo and in vitro
[1]; topical dose 2.5%, vehicle E
  % Inhibition of hamster hair mass: 45.1 ± 6.8%
  Treated (mg) hair mass: 1.4 ± 0.2 mg
[3]; [6]
  % Inhibition of human hair follicle growth: 59.3 ± 0.2%
  Hair follicle length increase (mm): 0.59 ± 0.29 mm
[3]; text summary of Table IX
  reduction of hair growth in vitro (in words): can reduce hair growth both in vivo and in vitro

## N[C@H](C(=O)O)c1ccc(O)cc1 [oxfenicine]
[5]
  % inhibition of CPT I: 44%
  pmol product /mg protein (CPT I activity): 0.64 pmol product/mg protein

## CCCCCCCCCCCCCCCC(=O)OC(CC(=O)[O-])C[N+](C)(C)C (stereo not drawn) [palmitoyl DL carnitine]
[1]; topical dose 10.0%, vehicle A
  % Inhibition of hamster hair mass: 73 ± 15%
  Treated (mg) hair mass: 0.29 ± 0.1 mg

## C1CCC(C(CC2CCCCN2)C2CCCCC2)CC1 (centres unmarked) [perhexiline]
[1]; topical dose 2.5%, vehicle B
  % Inhibition of hamster hair mass: 23 ± 25%
  Treated (mg) hair mass: 2.28 ± 0.77 mg
[2]
  % inhibition of CPT I: 86%
  pmol product /mg protein (CPT I activity): 0.10 pmol product /mg protein

## CCCCNC(=O)NS(=O)(=O)c1ccc(C)cc1 [tolbutamide]
[2]
  % inhibition of CPT I: 90%
  pmol product /mg protein (CPT I activity): 0.07 pmol product /mg protein
